Consider 1 compound from patent publication US20080125395A1, “COMPOSITIONS AND METHODS FOR THE TREATMENT OF SKIN” (priority 1999, published 2008).

The subject of the assay is rosacea. Briefly: topical treatment of rosacea in human subjects (case reports). The following applies: long-term use by subjects with facial rosacea. It is filed as in vivo. From the text:
A second subject was a person who suffered from disfiguring rosacea on their face for 14 years. […] After failure of the cortisone treatment to provide adequate relief, the subject used an ascorbic acid, zinc sulfate and tyrosine formulation once a day. The ascorbic acid composition provided slight relief, but the subject's rosacea never cleared up adequately. The subject then used the same ascorbic acid formulation to which 20% (w/v) glucosamine had been added.
FIG. 4 provides an exemplary depiction of the cosmetic and therapeutic benefits of the present invention. A subject used an embodiment of the present invention containing glucosamine for one week. Before using the embodiment (panel A), the subject suffered from disfiguring rosacea blemishes on their face. […] In one week, the size of blemishes has decreased and the intensity of the rosacea has abated, although some scarring (resulting from years of severe inflammatory lesions that had not responded to previous treatments) remains.

For the compound `C[C@]12CCC(=O)C=C1CC[C@@H]1[C@@H]2[C@@H](O)C[C@@]2(C)[C@H]1CC[C@]2(O)C(=O)CO` [hydrocortisone], the “control of rosacea inflammation” value is “partially control”.
